Where “and” joins values, the source holds several entries; their conditions need not be identical. Equal entries are not always repeated. ± gives the uncertainty stated by the source. One block for each compound: values may come before it.
- viscosity (298.15 K, 101 kPa): 1.057 ± 0.028 mPa·s
- viscosity (313.15 K, 101 kPa): 0.8452 ± 0.022 mPa·s
SMILES: C1COCOC1

SMILES: C=COC(C)=O
- viscosity (303.15 K, 101.33 kPa): 0.372 ± 0.003 mPa·s

- viscosity (303.15 K, 101.33 kPa): 3.163 ± 0.037 mPa·s
- viscosity (313.15 K, 101.33 kPa): 2.185 ± 0.026 mPa·s
- viscosity (323.15 K, 101.33 kPa): 1.573 ± 0.019 mPa·s
SMILES: CC(C)C(C)O (configuration not stated)

SMILES: CC(C)c1ccccc1
- viscosity (293.15 K, 101 kPa): 0.779 ± 0.013 mPa·s
- viscosity (298.15 K, 100 kPa): 0.772 ± 0.008 mPa·s
- viscosity (298.15 K, 101 kPa): 0.7314 ± 0.019 mPa·s and 0.731 ± 0.019 mPa·s
- viscosity (303.15 K, 101 kPa): 0.68 ± 0.01 mPa·s and 0.6881 ± 0.0057 mPa·s
- viscosity (308.15 K, 100 kPa): 0.692 ± 0.007 mPa·s
- viscosity (308.15 K, 101 kPa): 0.6366 ± 0.017 mPa·s and 0.636 ± 0.016 mPa·s and 0.6488 ± 0.0054 mPa·s
- viscosity (313.15 K, 101 kPa): 0.608 ± 0.011 mPa·s and 0.607 ± 0.011 mPa·s and 0.6116 ± 0.0051 mPa·s
- viscosity (318.15 K, 100 kPa): 0.623 ± 0.006 mPa·s
- viscosity (318.15 K, 101 kPa): 0.5767 ± 0.0049 mPa·s
- viscosity (323.15 K, 101 kPa): 0.5447 ± 0.0046 mPa·s

SMILES: CCC(CC)CO
- viscosity (298.15 K, 101.33 kPa): 5.819 ± 0.053 mPa·s and 5.819 ± 0.05 mPa·s

SMILES: CCCCCCCC(=O)O
- viscosity (298.15 K, 101 kPa): 5.16 ± 0.13 mPa·s

- viscosity (313.2 K, 101.3 kPa): 4.01 ± 0.045 mPa·s
SMILES: CCCCCCCCCCCCCCCCCCCC

SMILES: CCCN
- viscosity (293.15 K, 101.3 kPa): 0.359 ± 0.01 mPa·s
- viscosity (298.15 K, 100 kPa): 0.365 ± 0.0042 mPa·s
- viscosity (298.15 K, 101.3 kPa): 0.342 ± 0.01 mPa·s
- viscosity (298.15 K, 101.33 kPa): 0.356 ± 0.004 mPa·s
- viscosity (303.15 K, 101 kPa): 0.3468 ± 0.005 mPa·s and 0.3479 ± 0.005 mPa·s
- viscosity (303.15 K, 101.33 kPa): 0.3479 ± 0.005 mPa·s and 0.3512 ± 0.0032 mPa·s
- viscosity (308.15 K, 101 kPa): 0.2998 ± 0.011 mPa·s
- viscosity (308.15 K, 101.33 kPa): 0.328 ± 0.004 mPa·s
- viscosity (313.15 K, 101.33 kPa): 0.3123 ± 0.003 mPa·s
- viscosity (318.15 K, 101.33 kPa): 0.291 ± 0.003 mPa·s

- viscosity (298.16 K, 101 kPa): 2.204 ± 0.02 mPa·s
SMILES: CCCN(CCC)C(C)=O

- viscosity (293.15 K, 101.33 kPa): 2.586 ± 0.015 mPa·s
- viscosity (298.15 K, 101 kPa): 2.357 ± 0.075 mPa·s
- viscosity (303.15 K, 101.33 kPa): 2.013 ± 0.012 mPa·s
- viscosity (308.15 K, 101 kPa): 1.905 ± 0.061 mPa·s
- viscosity (313.15 K, 101.33 kPa): 1.604 ± 0.01 mPa·s
- viscosity (318.15 K, 101 kPa): 1.574 ± 0.05 mPa·s
- viscosity (323.15 K, 101.33 kPa): 1.301 ± 0.008 mPa·s
SMILES: CCCOC(=O)c1ccccc1

- viscosity (298.15 K, 101 kPa): 712.8 ± 38 mPa·s
- viscosity (308.15 K, 101 kPa): 351.3 ± 17 mPa·s
- viscosity (318.15 K, 101 kPa): 190.8 ± 8.5 mPa·s
SMILES: C[n+]1ccn(CCO)c1.O=C([O-])C(F)(F)C(F)(F)C(F)(F)C(F)(F)F

SMILES: Clc1ccccc1Cl
- viscosity (298.15 K, 101 kPa): 1.22 ± 0.011 mPa·s
- viscosity (303.15 K, 100 kPa): 1.238 ± 0.01 mPa·s
- viscosity (303.15 K, 101 kPa): 1.129 ± 0.01 mPa·s and 1.22 ± 0.015 mPa·s
- viscosity (308.15 K, 100 kPa): 1.146 ± 0.01 mPa·s
- viscosity (308.15 K, 101 kPa): 1.058 ± 0.0098 mPa·s and 1.148 ± 0.013 mPa·s
- viscosity (313.15 K, 100 kPa): 1.054 ± 0.009 mPa·s
- viscosity (313.15 K, 101 kPa): 0.9857 ± 0.0094 mPa·s and 1.054 ± 0.21 mPa·s
- viscosity (318.15 K, 100 kPa): 0.974 ± 0.009 mPa·s
- viscosity (318.15 K, 101 kPa): 0.974 ± 0.19 mPa·s

SMILES: N#CCCl
- viscosity (293.15 K, 101 kPa): 0.938 ± 0.025 mPa·s
- viscosity (298.15 K, 101 kPa): 0.863 ± 0.023 mPa·s
- viscosity (303.15 K, 101 kPa): 0.798 ± 0.021 mPa·s
- viscosity (313.15 K, 101 kPa): 0.714 ± 0.019 mPa·s
- viscosity (323.15 K, 101 kPa): 0.616 ± 0.016 mPa·s

SMILES: OCCc1ccccc1
- viscosity (298.15 K, 101 kPa): 10.9 ± 0.09 mPa·s
- viscosity (303.15 K, 100 kPa): 9.05 ± 0.25 mPa·s and 9.027 ± 0.54 mPa·s
- viscosity (308.15 K, 100 kPa): 7.653 ± 0.46 mPa·s
- viscosity (313.15 K, 100 kPa): 6.335 ± 0.38 mPa·s

SMILES: Oc1ccccc1Cl
- viscosity (293.15 K, 101 kPa): 4.21 ± 0.05 mPa·s
- viscosity (298 K, 101 kPa): 3.376 ± 0.086 mPa·s
- viscosity (298 K, 101.3 kPa): 3.376 ± 0.029 mPa·s
- viscosity (298 K, 101.33 kPa): 3.36 ± 0.067 mPa·s
- viscosity (298.15 K, 101 kPa): 3.671 ± 0.13 mPa·s and 3.381 ± 0.039 mPa·s
- viscosity (303 K, 101 kPa): 2.927 ± 0.075 mPa·s
- viscosity (303 K, 101.3 kPa): 2.927 ± 0.027 mPa·s
- viscosity (303.15 K, 101 kPa): 3.08 ± 0.03 mPa·s and 2.821 ± 0.063 mPa·s and 2.998 ± 0.045 mPa·s
- viscosity (308 K, 101 kPa): 2.532 ± 0.065 mPa·s
- viscosity (308 K, 101.3 kPa): 2.532 ± 0.024 mPa·s
- viscosity (308.15 K, 101 kPa): 2.491 ± 0.056 mPa·s and 2.358 ± 0.029 mPa·s
- viscosity (313 K, 101 kPa): 2.191 ± 0.056 mPa·s
- viscosity (313 K, 101.3 kPa): 2.191 ± 0.021 mPa·s
- viscosity (313.15 K, 101 kPa): 2.32 ± 0.02 mPa·s and 2.32 ± 0.023 mPa·s and 2.259 ± 0.052 mPa·s
- viscosity (318 K, 101 kPa): 1.947 ± 0.05 mPa·s
- viscosity (318 K, 101.3 kPa): 1.947 ± 0.019 mPa·s
- viscosity (318.15 K, 101 kPa): 2.038 ± 0.047 mPa·s
- viscosity (323.1 K, 101 kPa): 2.015 ± 0.069 mPa·s
- viscosity (323.15 K, 101 kPa): 1.871 ± 0.019 mPa·s
